# Laboratory results reported in ChEMBL document CHEMBL1155582, “Bioactive constituents of Thuja occidentalis” (J Nat Prod, 2000).
# pIC50: −log10 of the molar value. The source made the active and inactive calls. No cut-off for these calls is given here.
# Columns and labels:
# [1] = biological target: T1, Ornithine decarboxylase (Mus musculus) (UniProt P00860); assay: Inhibition of 12-O-tetradecanoylphorbol 13-acetate-induced ornithine decarboxylase activity in mouse ME308 cells; format: cell-based
# T1 sequence (whole entry): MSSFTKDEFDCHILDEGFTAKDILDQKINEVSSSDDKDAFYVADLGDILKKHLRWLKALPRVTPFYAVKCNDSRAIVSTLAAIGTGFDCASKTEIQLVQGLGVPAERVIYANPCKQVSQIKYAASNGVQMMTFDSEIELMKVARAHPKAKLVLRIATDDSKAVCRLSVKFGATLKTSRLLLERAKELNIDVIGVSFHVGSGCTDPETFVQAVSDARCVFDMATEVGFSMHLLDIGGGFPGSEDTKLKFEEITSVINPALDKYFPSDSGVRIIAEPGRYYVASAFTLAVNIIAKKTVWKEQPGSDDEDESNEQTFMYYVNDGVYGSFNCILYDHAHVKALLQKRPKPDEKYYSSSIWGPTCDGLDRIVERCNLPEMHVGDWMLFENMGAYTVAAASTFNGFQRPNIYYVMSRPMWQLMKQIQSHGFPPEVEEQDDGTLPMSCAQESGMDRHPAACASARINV
# JB6 = assay: (§1) Cytotoxicity against mouse JB6 cells by trypan blue exclusion test; format: functional, cell-based
# [2] = Inhibition of 12-O-tetradecanoylphorbol 13-acetate-induced transformation of mouse JB6 cells after 14 days by soft agar transformation assay; format: functional
# KB = assay: Cytotoxicity against human KB cells; format: functional, cell-based
# [3] = as §1; format: functional, cell-based
Structure (SMILES),Activity [1],Activity (JB6),Activity [2],pIC50 (KB),pIC50 [3]
COc1cc([C@H]2c3cc4c(cc3C[C@H]3COC(=O)[C@H]32)OCO4)cc(OC)c1OC [ISOPICRODEOXYPODOPHYLLOTOXIN],0.55 µM,Active,0.18 µM,–,–
CC1=C(/C=C/C(C)=C/C=C/C(C)=C\C(=O)O)C(C)(C)CCC1 [ISOTRETINOIN],0.6 µM,–,0.021 µM,–,–
COc1cc([C@@H]2c3cc4c(cc3C[C@H]3COC(=O)[C@@H]32)OCO4)cc(OC)c1OC [DESOXYPODOPHYLLOTOXIN],< 0.08 µM,Active,0.004 µM,–,–
C=C[C@@]1(C)CCC2=C(C1)C(=O)C[C@H]1[C@](C)(C(=O)O)CCC[C@]21C,0.98 µM,–,12.6 µM,< 4.22,< 4.22
C=C[C@@]1(C)CC[C@H]2C(=CC[C@@H]3[C@]2(C)CCC[C@@]3(C)C(=O)O)C1 [ISOPIMARIC ACID],0.86 µM,–,13.2 µM,< 4.22,< 4.22
C=C[C@]1(C)C=C2C(=O)C[C@@H]3[C@](C)(CCC[C@@]3(C)C(=O)O)[C@H]2CC1,0.5 µM,–,11.7 µM,< 4.22,< 4.22
COc1cc(C[C@H]2C(=O)OC[C@@H]2Cc2ccc3c(c2)OCO3)cc(OC)c1OC,6.5 µM,Active,3.75 µM,–,–
